Read-outs that look alike come from different tables or passages of the source.
Key:
[1] = biological target: T1, CDK4 (Homo sapiens, UniProt P11802); assay: CDK4 percentage degradation in Calu-1 cells (immunoblotting); format: cell-based; conditions: for inhibition at 0.2 µM: read-out: CDK4 Degradation (200 nM); for inhibition at 10 µM: read-out: CDK4 Degradation (10 μM)
T1 construct: endogenous in cells; host or cells: Calu-1
Summary of the method: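 CDK4 degradation was measured by immunoblotting. Cells were washed in cold PBS and lysed in RIPA buffer with inhibitors for 30 min at 4° C., then spun at 13,000 rpm to clear. After BCA protein determination, lysates were heated at 99° C. for 5 min in Laemmli buffer, resolved on SDS-PAGE, imaged on a ChemiDoc MP with ECL substrate, and band intensities quantified.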

[2] = tested on: cyclin D1; assay: Cyclin D1 percentage degradation in Calu-1 cells (immunoblotting); format: cell-based; conditions: 16 hours
Summary of the method: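 Cyclin D1 degradation was assessed by western blot. Clarified lysates, obtained by RIPA lysis with inhibitors and centrifugation at 13,000 rpm, were normalized by BCA protein assay and separated by SDS-PAGE. Bands were detected with Western ECL Substrate on a Bio-Rad ChemiDoc MP Imaging system and quantified in Image Lab software to derive percentage degradation.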

T1 sequence (P11802 2-303 limits assumed): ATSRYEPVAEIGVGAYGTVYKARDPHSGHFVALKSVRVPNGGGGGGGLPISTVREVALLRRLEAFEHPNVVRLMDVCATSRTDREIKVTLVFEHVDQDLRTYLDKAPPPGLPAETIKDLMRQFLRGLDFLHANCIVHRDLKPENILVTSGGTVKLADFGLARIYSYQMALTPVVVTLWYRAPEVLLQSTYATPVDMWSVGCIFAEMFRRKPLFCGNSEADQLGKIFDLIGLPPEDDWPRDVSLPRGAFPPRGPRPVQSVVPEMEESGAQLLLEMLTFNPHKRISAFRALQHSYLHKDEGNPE
T1 sequence (P24385 whole entry partner): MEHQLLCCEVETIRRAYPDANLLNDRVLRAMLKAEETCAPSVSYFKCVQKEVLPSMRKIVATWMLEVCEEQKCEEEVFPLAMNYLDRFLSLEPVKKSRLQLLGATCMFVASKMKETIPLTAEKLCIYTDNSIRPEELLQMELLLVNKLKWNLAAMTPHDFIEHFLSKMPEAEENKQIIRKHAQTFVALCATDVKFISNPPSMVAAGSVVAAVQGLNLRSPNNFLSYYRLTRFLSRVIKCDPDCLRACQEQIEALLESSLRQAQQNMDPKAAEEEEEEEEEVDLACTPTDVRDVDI
T1 sequence (Q16531 2-1140 limits assumed, further chain): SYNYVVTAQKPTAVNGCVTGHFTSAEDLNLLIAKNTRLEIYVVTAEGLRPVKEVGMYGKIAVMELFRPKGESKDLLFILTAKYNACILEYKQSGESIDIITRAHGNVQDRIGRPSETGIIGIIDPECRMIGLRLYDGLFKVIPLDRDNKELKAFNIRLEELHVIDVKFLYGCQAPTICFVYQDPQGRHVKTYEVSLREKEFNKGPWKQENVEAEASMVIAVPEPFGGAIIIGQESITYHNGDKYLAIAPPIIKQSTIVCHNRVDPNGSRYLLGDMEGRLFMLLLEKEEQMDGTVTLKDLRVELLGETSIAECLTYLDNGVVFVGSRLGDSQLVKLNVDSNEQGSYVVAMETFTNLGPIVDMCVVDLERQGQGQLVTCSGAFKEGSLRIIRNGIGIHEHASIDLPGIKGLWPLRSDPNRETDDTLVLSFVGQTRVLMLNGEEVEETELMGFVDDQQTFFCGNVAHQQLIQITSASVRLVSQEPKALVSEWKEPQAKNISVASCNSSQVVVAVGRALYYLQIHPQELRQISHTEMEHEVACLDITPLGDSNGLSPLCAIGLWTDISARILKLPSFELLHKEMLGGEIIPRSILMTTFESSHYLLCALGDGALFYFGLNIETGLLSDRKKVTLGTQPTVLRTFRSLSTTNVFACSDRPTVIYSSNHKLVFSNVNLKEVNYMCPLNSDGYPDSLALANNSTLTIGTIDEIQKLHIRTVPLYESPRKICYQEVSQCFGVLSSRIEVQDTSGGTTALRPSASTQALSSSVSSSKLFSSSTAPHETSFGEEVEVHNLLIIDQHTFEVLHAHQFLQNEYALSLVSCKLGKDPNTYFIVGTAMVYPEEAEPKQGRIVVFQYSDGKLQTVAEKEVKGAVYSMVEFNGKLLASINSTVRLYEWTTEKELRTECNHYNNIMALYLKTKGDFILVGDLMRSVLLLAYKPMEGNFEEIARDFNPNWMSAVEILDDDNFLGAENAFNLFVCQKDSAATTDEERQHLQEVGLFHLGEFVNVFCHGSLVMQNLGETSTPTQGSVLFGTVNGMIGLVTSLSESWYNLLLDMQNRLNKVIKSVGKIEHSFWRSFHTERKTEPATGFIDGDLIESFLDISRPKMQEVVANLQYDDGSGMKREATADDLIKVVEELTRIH

SMILES | inhibition at 0.2 µM ([1]; Calu-1, 16 h) | CyclinD1 Degradation (200 nM) [2] | inhibition at 10 µM ([1]; Calu-1 cells, 16 hours) | CyclinD1 Degradation (10 μM) [2] | inhibition at 0.2 µM ([1]; Calu-1 cells, 200 nM, 16 hours)
CC(=O)c1c(C)c2cnc(Nc3ccc(N4CCN(C(=O)CNc5cccc(C(=O)Nc6nc(C)c(C)s6)c5C)CC4)cn3)nc2n(C2CCCC2)c1=O [CPD-124, 3-((2-(4-(6-((6-Acetyl-8-cyclopentyl-5-methyl-7-oxo-7,8-dihydropyrido[2,3-d]pyrimidin-2-yl)amino)pyridin-3-yl)piperazin-1-yl)-2-oxoethyl)amino)-N-(4,5-dimethylthiazol-2-yl)-2-methylbenzamide] | < 30% | D (protein percentage degradation <30%) |  |  | 
CC(=O)c1c(C)c2cnc(Nc3ccc(N4CCN(C(=O)CCCCCCCCC(=O)Nc5ccccc5C(=O)Nc5nc(C)c(C)s5)CC4)cn3)nc2n(C2CCCC2)c1=O [CPD-162, 2-(10-(4-(6-((6-Acetyl-8-cyclopentyl-5-methyl-7-oxo-7,8-dihydropyrido[2,3-d]pyrimidin-2-yl)amino)pyridin-3-yl)piperazin-1-yl)-10-oxodecanamido)-N-(4,5-dimethylthiazol-2-yl)benzamide] | < 30% | C (protein percentage degradation <50%, and >=30%) |  |  | 
Cc1nc(NC(=O)c2ccccc2NC(=O)CCOCCOCCNC(=O)CN2CCN(Cc3ccc(Nc4ncc(F)c(-c5cc(F)c6nc(C)n(C(C)C)c6c5)n4)nc3)CC2)sc1C [CPD-281, N-(4,5-Dimethylthiazol-2-yl)-2-(3-(2-(2-(2-(4-((6-((5-fluoro-4-(4-fluoro-1-isopropyl-2-methyl-1H-benzo[d]imidazol-6-yl)pyrimidin-2-yl)amino)pyridin-3-yl)methyl)piperazin-1-yl)acetamido)ethoxy)ethoxy)propanamido)benzamide] |  |  | < 30% | D (protein percentage degradation < 30%) | 
Cc1nc(NC(=O)c2ccccc2NC(=O)CCCCNC(=O)CN2CCN(Cc3ccc(Nc4ncc(F)c(-c5cc(F)c6nc(C)n(C(C)C)c6c5)n4)nc3)CC2)sc1C [CPD-275, N-(4,5-Dimethylthiazol-2-yl)-2-(5-(2-(4-((6-((5-fluoro-4-(4-fluoro-1-isopropyl-2-methyl-1H-benzo[d]imidazol-6-yl)pyrimidin-2-yl)amino)pyridin-3-yl)methyl)piperazin-1-yl)acetamido)pentanamido)benzamide] |  |  | < 30% | D (protein percentage degradation < 30%) | 
Cc1nc(NC(=O)c2ccccc2NC(=O)CCCCCNC(=O)CN2CCN(c3ccc(Nc4ncc(F)c(-c5cc(F)c6nc(C)n(C(C)C)c6c5)n4)nc3)CC2)sc1C [CPD-304, N-(4,5-Dimethylthiazol-2-yl)-2-(6-(2-(4-(6-((5-fluoro-4-(4-fluoro-1-isopropyl-2-methyl-1H-benzo[d]imidazol-6-yl)pyrimidin-2-yl)amino)pyridin-3-yl)piperazin-1-yl)acetamido)hexanamido)benzamide] |  |  | < 30% | D (protein percentage degradation < 30%) | 
Cc1nc(NC(=O)c2ccccc2NC(=O)CCCCCCNC(=O)CN2CCN(c3ccc(Nc4ncc5cc6n(c5n4)C4(CCCCC4)CNC6=O)nc3)CC2)sc1C [CPD-319, N-(4,5-Dimethylthiazol-2-yl)-2-(7-(2-(4-(6-((6′-oxo-7′,8′-dihydro-6′H-spiro[cyclohexane-1,9′-pyrazino[1′,2′:1,5]pyrrolo[2,3-d]pyrimidin]-2′-yl)amino)pyridin-3-yl)piperazin-1-yl)acetamido)heptanamido)benzamide] |  |  | 50 to 80% | A (protein percentage degradation >= 80%) | 
Cc1nc(NC(=O)c2ccccc2NC(=O)CCOCCOCCOCCOCCOCCNC(=O)CN2CCN(c3ccc(Nc4ncc5cc(C(=O)N(C)C)n(C6CCCC6)c5n4)nc3)CC2)sc1C [CPD-298, 7-Cyclopentyl-2-((5-(4-(21-((2-((4,5-dimethylthiazol-2-yl)carbamoyl)phenyl)amino)-2,21-dioxo-6,9,12,15,18-pentaoxa-3-azahenicosyl)piperazin-1-yl)pyridin-2-yl)amino)-N,N-dimethyl-7H-pyrrolo[2,3-d]pyrimidine-6-carboxamide] |  |  | 50 to 80% | A (protein percentage degradation >= 80%) | 
CC(=O)c1c(C)c2cnc(Nc3ccc(N4CCN(C(=O)CCOCCOCCOCCOCCOCCNc5cccc(C(=O)Nc6nc(C)c(C)s6)c5C)CC4)cn3)nc2n(C2CCCC2)c1=O [CPD-126, 3-((18-(4-(6-((6-Acetyl-8-cyclopentyl-5-methyl-7-oxo-7,8-dihydropyrido[2,3-d]pyrimidin-2-yl)amino)pyridin-3-yl)piperazin-1-yl)-18-oxo-3,6,9,12,15-pentaoxaoctadecyl)amino)-N-(4,5-dimethylthiazol-2-yl)-2-methylbenzamide] | 50 to 80% | B (protein percentage degradation <80%, and >=50%) |  |  | 
CC(=O)c1c(C)c2cnc(Nc3ccc(N4CCN(CC(=O)NCCCCCCCNC(=O)CNc5ccc(C(=O)Nc6ncc(C)s6)c(C)c5)CC4)cn3)nc2n(C2CCCC2)c1=O [CPD-016, 4-((2-((7-(2-(4-(6-((6-Acetyl-8-cyclopentyl-5-methyl-7-oxo-7,8-dihydropyrido[2,3-d]pyrimidin-2-yl)amino)pyridin-3-yl)piperazin-1-yl)acetamido)heptyl)amino)-2-oxoethyl)amino)-2-methyl-N-(5-methylthiazol-2-yl)benzamide] |  | D (protein percentage degradation <30%) |  |  | < 30%
CC(=O)c1c(C)c2cnc(Nc3ccc(N4CCN(C(=O)CCNc5cccc(C(=O)Nc6nc(C)c(C)s6)c5C)CC4)cn3)nc2n(C2CCCC2)c1=O [CPD-112, 3-((3-(4-(6-((6-Acetyl-8-cyclopentyl-5-methyl-7-oxo-7,8-dihydropyrido[2,3-d]pyrimidin-2-yl)amino)pyridin-3-yl)piperazin-1-yl)-3-oxopropyl)amino)-N-(4,5-dimethylthiazol-2-yl)-2-methylbenzamide] | < 30% | D (protein percentage degradation <30%) |  |  | 
CC(=O)c1c(C)c2cnc(Nc3ccc(N4CCN(CC(=O)NCCOCCOCCC(=O)Nc5c(C(=O)Nc6ccc(C)cn6)ccc6[nH]ccc56)CC4)cn3)nc2n(C2CCCC2)c1=O [CPD-361, 4-(3-(2-(2-(2-(4-(6-((6-acetyl-8-cyclopentyl-5-methyl-7-oxo-7,8-dihydropyrido[2,3-d]pyrimidin-2-yl)amino)pyridin-3-yl)piperazin-1-yl)acetamido)ethoxy)ethoxy)propanamido)-N-(5-methylpyridin-2-yl)-1H-indole-5-carboxamide] |  | A (protein percentage degradation >=80%) |  |  | 50 to 80%
CC(=O)c1c(C)c2cnc(Nc3ccc(N4CCN(CC(=O)NCCOCCOCCC(=O)Nc5ccccc5C(=O)Nc5ncc(C)[nH]5)CC4)cn3)nc2n(C2CCCC2)c1=O [CPD-064, 2-(3-(2-(2-(2-(4-(6-((6-Acetyl-8-cyclopentyl-5-methyl-7-oxo-7,8-dihydropyrido[2,3-d]pyrimidin-2-yl)amino)pyridin-3-yl)piperazin-1-yl)acetamido)ethoxy)ethoxy)propanamido)-N-(5-methyl-1H-imidazol-2-yl)benzamide] |  | D (protein percentage degradation <30%) |  |  | < 30%
